Reference: patent US20180222836A1, “Process for the Preparation of Pharmaceutical Grade Ferric Citrate” (Lupin Limited, priority 2015, published 2018)

Assay: BET active specific surface area (U.S. Pharmacopeia General Chapter <846>)
Assay type: physicochemical
Details: pharmaceutical grade ferric citrate, dried powder from one-pot process
Method: According to the present invention, the pharmaceutical grade ferric citrate having BET surface area in the range of […]. the method of analysis for BET surface are of the ferric citrate is performed as per U.S. Pharmacopeia General Chapter <846>.

Row | Substance | BET Active Specific Surface Area [m^2/gm]
1 | ferric citrate [EXAMPLE-1] | 6.51
2 | ferric citrate [EXAMPLE-2] | 6.47
